Measured values taken from ChEMBL document CHEMBL2413072, “Synthesis and in vitro anticancer studies of novel C-2 arylidene congeners of lantadenes” (2013).

Tests used:
Type in all cases: functional
[1] = tested on: SF-539; experiment: Growth inhibition of human SF539 cells assessed as cell growth at 10 uM by sulforhodamine B assay; conditions: read-out: Activity
[2] = tested on: PC-3; experiment: Growth inhibition of human PC3 cells assessed as growth inhibition at 10 uM by sulforhodamine B assay; conditions: read-out: GI
[3] = tested on: BT-549; experiment: Growth inhibition of human BT549 cells assessed as growth inhibition at 10 uM by sulforhodamine B assay; conditions: read-out: GI
[4] = Growth inhibition of human Hs 578T cells assessed as cell growth at 10 uM by sulforhodamine B assay; conditions: read-out: Activity
[5] = tested on: U-251; experiment: Growth inhibition of human U251 cells assessed as growth inhibition at 10 uM by sulforhodamine B assay; conditions: read-out: GI
[6] = tested on: HOP-62; experiment: Growth inhibition of human HOP62 cells assessed as growth inhibition at 10 uM by sulforhodamine B assay; conditions: read-out: GI
[7] = Growth inhibition of human HCC2998 cells assessed as growth inhibition at 10 uM by sulforhodamine B assay; conditions: HCC 2998, read-out: GI
[8] = tested on: PC-3; experiment: Growth inhibition of human PC3 cells assessed as cell growth at 10 uM by sulforhodamine B assay; conditions: read-out: Activity
[9] = tested on: A549; experiment: Growth inhibition of human A549/ATCC cells assessed as cell growth at 10 uM by sulforhodamine B assay; conditions: read-out: Activity
[10] = Growth inhibition of human NCI-ADR-RES cells assessed as cell growth at 10 uM by sulforhodamine B assay; conditions: read-out: Activity
[11] = tested on: DU-145; experiment: Growth inhibition of human DU145 cells assessed as cell growth at 10 uM by sulforhodamine B assay; conditions: read-out: Activity
[12] = tested on: RPMI-8226; experiment: Growth inhibition of human RPMI8226 cells assessed as cell growth at 10 uM by sulforhodamine B assay; conditions: read-out: Activity
[13] = tested on: SF-268; experiment: Growth inhibition of human SF268 cells assessed as cell growth at 10 uM by sulforhodamine B assay; conditions: read-out: Activity
[14] = tested on: SK-MEL-2; experiment: Growth inhibition of human SK-MEL-2 cells assessed as growth inhibition at 10 uM by sulforhodamine B assay; conditions: read-out: GI
[15] = tested on: HT-29; experiment: Growth inhibition of human HT-29 cells assessed as growth inhibition at 10 uM by sulforhodamine B assay; conditions: read-out: GI
[16] = tested on: SNB-75; experiment: Growth inhibition of human SNB75 cells assessed as growth inhibition at 10 uM by sulforhodamine B assay; conditions: read-out: GI
[17] = tested on: TK-10; experiment: Growth inhibition of human TK10 cells assessed as cell growth at 10 uM by sulforhodamine B assay; conditions: read-out: Activity
[18] = tested on: UACC-257; experiment: Growth inhibition of human UACC257 cells assessed as growth inhibition at 10 uM by sulforhodamine B assay; conditions: read-out: GI
[19] = tested on: UO-31; experiment: Growth inhibition of human UO31 cells assessed as cell growth at 10 uM by sulforhodamine B assay; conditions: read-out: Activity
[20] = tested on: SK-MEL-5; experiment: Growth inhibition of human SK-MEL-5 cells assessed as cell growth at 10 uM by sulforhodamine B assay; conditions: read-out: Activity
[21] = tested on: Malme-3M; experiment: Growth inhibition of human MALME-3M cells assessed as growth inhibition at 10 uM by sulforhodamine B assay; conditions: read-out: GI
[22] = tested on: SN12C; experiment: Growth inhibition of human SN12C cells assessed as cell growth at 10 uM by sulforhodamine B assay; conditions: read-out: Activity
[23] = tested on: SR; experiment: Growth inhibition of human SR cells assessed as growth inhibition at 10 uM by sulforhodamine B assay; conditions: read-out: GI
[24] = tested on: HOP-92; experiment: Growth inhibition of human HOP92 cells assessed as cell growth at 10 uM by sulforhodamine B assay; conditions: read-out: Activity
[25] = tested on: SNB-19; experiment: Growth inhibition of human SNB19 cells assessed as growth inhibition at 10 uM by sulforhodamine B assay; conditions: read-out: GI
[26] = tested on: HOP-92; experiment: Growth inhibition of human HOP92 cells assessed as growth inhibition at 10 uM by sulforhodamine B assay; conditions: read-out: GI
[27] = tested on: MDA-MB-231; experiment: Growth inhibition of human MDA-MB-231 cells assessed as cell growth at 10 uM by sulforhodamine B assay; conditions: read-out: Activity
[28] = tested on: A549; experiment: Growth inhibition of human A549/ATCC cells assessed as growth inhibition at 10 uM by sulforhodamine B assay; conditions: read-out: GI
[29] = tested on: OVCAR-8; experiment: Growth inhibition of human OVCAR8 cells assessed as cell growth at 10 uM by sulforhodamine B assay; conditions: read-out: Activity
[30] = Growth inhibition of human EKVX cells assessed as cell growth at 10 uM by sulforhodamine B assay; conditions: read-out: Activity
[31] = tested on: SK-OV-3; experiment: Growth inhibition of human SKOV3 cells assessed as cell growth at 10 uM by sulforhodamine B assay; conditions: read-out: Activity
[32] = tested on: OVCAR-4; experiment: Growth inhibition of human OVCAR4 cells assessed as cell growth at 10 uM by sulforhodamine B assay; conditions: read-out: Activity
[33] = tested on: T47D; experiment: Growth inhibition of human T47D cells assessed as growth inhibition at 10 uM by sulforhodamine B assay; conditions: read-out: GI
[34] = tested on: Malme-3M; experiment: Growth inhibition of human MALME-3M cells assessed as cell growth at 10 uM by sulforhodamine B assay; conditions: read-out: Activity
[35] = tested on: K562; experiment: Growth inhibition of human K562 cells assessed as growth inhibition at 10 uM by sulforhodamine B assay; conditions: read-out: GI
[36] = tested on: SW-620; experiment: Growth inhibition of human SW620 cells assessed as growth inhibition at 10 uM by sulforhodamine B assay; conditions: read-out: GI
[37] = tested on: NCI-H522; experiment: Growth inhibition of human NCI-H522 cells assessed as growth inhibition at 10 uM by sulforhodamine B assay; conditions: read-out: GI
[38] = tested on: COLO 205; experiment: Growth inhibition of human COLO205 cells assessed as cell growth at 10 uM by sulforhodamine B assay; conditions: read-out: Activity
[39] = tested on: KM12; experiment: Growth inhibition of human KM12 cells assessed as growth inhibition at 10 uM by sulforhodamine B assay; conditions: read-out: GI
[40] = tested on: KM12; experiment: Growth inhibition of human KM12 cells assessed as cell growth at 10 uM by sulforhodamine B assay; conditions: read-out: Activity
[41] = tested on: OVCAR-4; experiment: Growth inhibition of human OVCAR4 cells assessed as growth inhibition at 10 uM by sulforhodamine B assay; conditions: read-out: GI
[42] = tested on: SK-MEL-5; experiment: Growth inhibition of human SK-MEL-5 cells assessed as growth inhibition at 10 uM by sulforhodamine B assay; conditions: read-out: GI
[43] = tested on: SF-539; experiment: Growth inhibition of human SF539 cells assessed as growth inhibition at 10 uM by sulforhodamine B assay; conditions: read-out: GI
[44] = tested on: IGROV-1; experiment: Growth inhibition of human IGROV1 cells assessed as cell growth at 10 uM by sulforhodamine B assay; conditions: read-out: Activity
[45] = tested on: CAKI-1; experiment: Growth inhibition of human CAKI-1 cells assessed as growth inhibition at 10 uM by sulforhodamine B assay; conditions: read-out: GI
[46] = tested on: CAKI-1; experiment: Growth inhibition of human CAKI-1 cells assessed as cell growth at 10 uM by sulforhodamine B assay; conditions: read-out: Activity
[47] = tested on: MDA-MB-231; experiment: Growth inhibition of human MDA-MB-231 cells assessed as growth inhibition at 10 uM by sulforhodamine B assay; conditions: read-out: GI
[48] = tested on: SW-620; experiment: Growth inhibition of human SW620 cells assessed as cell growth at 10 uM by sulforhodamine B assay; conditions: read-out: Activity
[49] = tested on: MCF7; experiment: Growth inhibition of human MCF7 cells assessed as growth inhibition at 10 uM by sulforhodamine B assay; conditions: read-out: GI
[50] = tested on: K562; experiment: Growth inhibition of human K562 cells assessed as cell growth at 10 uM by sulforhodamine B assay; conditions: read-out: Activity

CC1(C)C[C@@H](O)[C@]2(C(=O)O)CC[C@]3(C)C(=CC[C@@H]4[C@@]5(C)C/C(=C\C=C\c6ccccc6)C(=O)C(C)(C)[C@@H]5CC[C@]43C)[C@@H]2C1
growth at 10 µM [1]: 91.9% | inhibition of growth at 10 µM [2]: 58.5% | inhibition of growth at 10 µM [3]: 30% | growth at 10 µM [4]: 58.4% | inhibition of growth at 10 µM [5]: 66.4% | inhibition of growth at 10 µM [6]: 37.2% | inhibition of growth at 10 µM [7]: 17.2% | growth at 10 µM [8]: 41.5% | growth at 10 µM [9]: 22.7% | growth at 10 µM [10]: 76.2% | growth at 10 µM [11]: 71.2% | growth at 10 µM [12]: 15.6% | growth at 10 µM [13]: 70.7% | inhibition of growth at 10 µM [14]: 35.4% | inhibition of growth at 10 µM [15]: 48.3% | inhibition of growth at 10 µM [16]: 27.9% | growth at 10 µM [17]: 88.3% | inhibition of growth at 10 µM [18]: 38% | growth at 10 µM [19]: 40.3% | growth at 10 µM [20]: 73.7% | inhibition of growth at 10 µM [21]: 15.5% | growth at 10 µM [22]: 45.5% | inhibition of growth at 10 µM [23]: 37.4% | growth at 10 µM [24]: 49.2% | inhibition of growth at 10 µM [25]: 26.6% | inhibition of growth at 10 µM [26]: 50.8% | growth at 10 µM [27]: 68.9% | inhibition of growth at 10 µM [28]: 77.3% | growth at 10 µM [29]: 43% | growth at 10 µM [30]: 39.4% | growth at 10 µM [31]: 85.7% | growth at 10 µM [32]: 54.2% | inhibition of growth at 10 µM [33]: 62.4% | growth at 10 µM [34]: 84.5% | inhibition of growth at 10 µM [35]: 67.6% | inhibition of growth at 10 µM [36]: 44.2% | inhibition of growth at 10 µM [37]: 52.3% | growth at 10 µM [38]: 97.8% | inhibition of growth at 10 µM [39]: 68.2% | growth at 10 µM [40]: 31.8% | inhibition of growth at 10 µM [41]: 45.8% | inhibition of growth at 10 µM [42]: 26.3% | inhibition of growth at 10 µM [43]: < 10% | growth at 10 µM [44]: 60.8% | inhibition of growth at 10 µM [45]: 57% | growth at 10 µM [46]: 43% | inhibition of growth at 10 µM [47]: 31.1% | growth at 10 µM [48]: 55.8% | inhibition of growth at 10 µM [49]: 66.2% | growth at 10 µM [50]: 32.4%
